Source: patent US20250367191A1, “TREATMENT OF MITOCHONDRIAL DISEASES WITH A CNS-PENETRANT SGC STIMULATOR ZAGOCIGUAT” (Tisento Therapeutics Inc., priority 2022, published 2025)

Columns and labels:
rats = settings: cited from earlier work
healthy elderly subjects = settings: cited from earlier work
mice = mice pretreated, compared with vehicle-treated mice; cited from earlier work
[1] = tested on: participants diagnosed with MELAS; test: MELAS study: cerebral blood flow by arterial spin labeling (ASL); type: in vivo, human; settings: 15 mg QD
Protocol: Two exploratory functional neuroimaging modalities, arterial spin labeling (ASL) and functional magnetic resonance imaging (fMRI), were used to measure the potential PD effects of Compound I in the brain. While ASL quantifies regional CBF during the resting state, fMRI is a relative measure based on the blood-oxygen-level-dependent (BOLD) effect and was conducted during both a resting state and during a visual stimulus to measure brain activity.
Each individual MRI scanning session took approximately 45 minutes (maximum of ˜1 hour).
(§1) This change was observed across all brain regions of interest. Effect size throughout this disclosure is defined as the means change from baseline in a particular parameter that is being measured, divided by the standard deviation. Effect sizes closer to 1 or −1 (positive or negative dependent on the direction of movement for the specific parameter, i.e. +0.8 to +1.0 or −0.8 to −1.0) are usually considered large. Effect sizes between 0.5 and 0.8 or −0.5 and −0.8 (positive or negative dependent on the direction of movement for the specific parameter) are usually considered moderate. Effect sizes closer to below 0.5 or −0.5 (positive or negative dependent on the direction of movement for the specific parameter) are usually considered small.

[2] = Two Phase 1 studies in healthy adults aged 18 to 79: safety, PK, PD; type: in vivo, human
From the text: The 15-mg Compound I QD dose was selected based on safety, tolerability, PK, and PD data from repeated dosing at this level in two Phase 1 studies conducted in healthy adults aged 18 to 79 years. […] Across the Phase 1 studies, no safety concerns were identified. […] No impact on cognitive performance measures was observed.

rodent = settings: single dose; cited from earlier work
[3] = tested on: participants diagnosed with MELAS; test: MELAS study: inflammatory biomarkers in plasma (InflammationMAP panel); type: in vivo, human
Protocol: Plasma and serum samples for biomarkers were collected from each participant. These biomarkers tested the target engagement of Compound I as well as the impact of the compound on disease. Plasma or serum samples were analyzed for concentrations of growth differentiation factor 15 (GDF-15), lactate, pyruvate, alanine, neurofilament light chain (NFL), vascular cell adhesion molecule 1, interleukin-1beta, asymmetric dimethylarginine (ADMA), L arginine, and other biomarkers relevant to the pathophysiology of mitochondrial disease, as well as their response to Compound I.
as §1
26 out of the 40 (65%) inflammatory biomarkers assessed in plasma as part of the InflammationMAP® panel were reduced with effect sizes less or equal than −0.3. Only 3 of the 40 (7.5%) inflammatory biomarkers assessed in plasma increased with an effect size equal or more than 0.3. The changes in concentrations as well as the effect sizes for inflammatory markers measured in plasma are summarized in the 3 tables below (Table 1: large effect size; Table 2: moderate effect size and Table 3: small effect size). The concentration values in Tables 1-3 were measured in the standard units for each of these laboratory measures as known in the art. Many of these biomarkers tended to increase again back to baseline levels after treatment with Compound I was stopped, supporting a drug effect.

[4] = two weeks, 15 mg QD, compared with placebo
[5] = healthy elderly, 15 mg QD, after 14 days
[6] = healthy participants, 15 mg QD for up to 15 days

Fc1ccccc1Cc1nc(-c2nc(C(F)(F)F)n[nH]2)cn2ccnc12 [Compound I, zagociguat]
gamma power in combination with donepezil (rats; 10 mg/kg orally + 1 mg/kg donepezil, 1-2 hours post-dose): further increased | qEEG gamma oscillations / gamma power compared to vehicle dosing (rats; oral suspension): increasing gamma oscillations | gamma power (rats; orally at 10 mg/kg): increased gamma power | N200 auditory event-related potential (ERP) latencies (healthy elderly subjects; healthy elderly, 15 mg QD): shortening | gamma power (EEG) (healthy elderly subjects; healthy elderly, 15 mg QD): trend increases in gamma power | posterior alpha power (EEG) (healthy elderly subjects; healthy elderly, 15 mg QD): increases in posterior alpha power | neuroimaging by ASL and fMRI BOLD, MRS measurements, NeuroCart CNS function assessments (healthy elderly subjects; healthy elderly): No changes were observed | CSF concentration of Alpha 2 macroglobulin (A2M) (healthy elderly subjects; [4]): potentially important reductions | CSF concentration of complement C3 (C3) (healthy elderly subjects; [4]): potentially important reductions | rotenone-induced astrogliosis (mice): lower rotenone-induced astrogliosis | CBF on day 29 compared to baseline (day 1) ([1]; ASL, all brain regions of interest): increase of CBF | patients with increased CBF between day 1 and day 29 ([1]; individual patients): 5 of the 8 | PK data, dose dependence ([2]; Phase 1 studies): linear and dose-dependent | PK data, effect of food ([2]; Phase 1 studies): not impacted by food | cognitive performance measures [2, 5]: No impact | neurophysiological parameters by EEG [2, 5]: modest impacts | SAEs [2, 6]: no SAEs reported | discontinuations due to AEs [2, 6]: no discontinuations due to AEs | severity of AEs [2, 6]: mild or moderate | fMRI-BOLD signals (rodent): increased fMRI-BOLD signals | levels of cGMP in the CNS (rodent): increased levels of cGMP in the CNS | qEEG gamma-band oscillatory power (rodent): elevated qEEG gamma-band oscillatory power | Alpha-1-Antitrypsin, Effect size ([3]; 15 mg QD, day 29 vs baseline): −0.4 | Alpha-1-Antitrypsin, change in concentration, Mean ([3]; 15 mg QD, day 29 vs baseline): −0.2 | Alpha-2-Macroglobulin, Effect size ([3]; 15 mg QD, day 29 vs baseline): −0.3 | Alpha-2-Macroglobulin, change in concentration, Mean ([3]; 15 mg QD, day 29 vs baseline): −0.2 | Beta-2-Microglobulin, Effect size ([3]; 15 mg QD, day 29 vs baseline): −1.0 | Beta-2-Microglobulin, change in concentration, Mean ([3]; 15 mg QD, day 29 vs baseline): −0.5 | Brain-Derived Neurotrophic Factor, Effect size ([3]; 15 mg QD, day 29 vs baseline): −0.5 | Brain-Derived Neurotrophic Factor, change in concentration, Mean ([3]; 15 mg QD, day 29 vs baseline): −2.1 | C-Reactive Protein, Effect size ([3]; 15 mg QD, day 29 vs baseline): −0.6 | C-Reactive Protein, change in concentration, Mean ([3]; 15 mg QD, day 29 vs baseline): −3.4 | EN-RAGE, Effect size ([3]; 15 mg QD, day 29 vs baseline): −0.4 | EN-RAGE, change in concentration, Mean ([3]; 15 mg QD, day 29 vs baseline): −28.4 | Eotaxin-1, Effect size ([3]; 15 mg QD, day 29 vs baseline): −0.4 | Eotaxin-1, change in concentration, Mean ([3]; 15 mg QD, day 29 vs baseline): −10.1 | Factor VII, Effect size ([3]; 15 mg QD, day 29 vs baseline): −0.4 | Factor VII, change in concentration, Mean ([3]; 15 mg QD, day 29 vs baseline): −87.4 | Ferritin, Effect size ([3]; 15 mg QD, day 29 vs baseline): −0.6 | Ferritin, change in concentration, Mean ([3]; 15 mg QD, day 29 vs baseline): −21.4 | Fibrinogen, Effect size ([3]; 15 mg QD, day 29 vs baseline): −0.4 | Fibrinogen, change in concentration, Mean ([3]; 15 mg QD, day 29 vs baseline): −1.4 | Granulocyte-Macrophage Colony-Stimulating Factor, Effect size ([3]; 15 mg QD, day 29 vs baseline): −0.4 | Granulocyte-Macrophage Colony-Stimulating Factor, change in concentration, Mean ([3]; 15 mg QD, day 29 vs baseline): −13.6 | Immunoglobulin A, Effect size ([3]; 15 mg QD, day 29 vs baseline): −0.5 | Immunoglobulin A, change in concentration, Mean ([3]; 15 mg QD, day 29 vs baseline): −0.4 | Immunoglobulin M, Effect size ([3]; 15 mg QD, day 29 vs baseline): −0.6 | Immunoglobulin M, change in concentration, Mean ([3]; 15 mg QD, day 29 vs baseline): −0.4 | Intercellular Adhesion Molecule 1, Effect size ([3]; 15 mg QD, day 29 vs baseline): −0.3 | Intercellular Adhesion Molecule 1, change in concentration, Mean ([3]; 15 mg QD, day 29 vs baseline): −12.1 | Interleukin-10 (IL-10), Effect size ([3]; 15 mg QD, day 29 vs baseline): 0.4 | Interleukin-10 (IL-10), change in concentration, Mean ([3]; 15 mg QD, day 29 vs baseline): 0.3 | Interleukin-17 (IL-17), Effect size ([3]; 15 mg QD, day 29 vs baseline): 0.5 | Interleukin-17 (IL-17), change in concentration, Mean ([3]; 15 mg QD, day 29 vs baseline): 0.03 | Interleukin-18, Effect size ([3]; 15 mg QD, day 29 vs baseline): −0.4 | Interleukin-18, change in concentration, Mean ([3]; 15 mg QD, day 29 vs baseline): −25.6 | Matrix Metalloproteinase-9 (MMP-9), Effect size ([3]; 15 mg QD, day 29 vs baseline): 0.4 | Matrix Metalloproteinase-9 (MMP-9), change in concentration, Mean ([3]; 15 mg QD, day 29 vs baseline): 37.3 | Myoglobin, Effect size ([3]; 15 mg QD, day 29 vs baseline): −0.4 | Myoglobin, change in concentration, Mean ([3]; 15 mg QD, day 29 vs baseline): −32.5 | Plasminogen Activator Inhibitor 1, Effect size ([3]; 15 mg QD, day 29 vs baseline): −0.4 | Plasminogen Activator Inhibitor 1, change in concentration, Mean ([3]; 15 mg QD, day 29 vs baseline): −11.6 | Pulmonary and Activation-Regulated Chemokine, Effect size ([3]; 15 mg QD, day 29 vs baseline): −0.5 | Pulmonary and Activation-Regulated Chemokine, change in concentration, Mean ([3]; 15 mg QD, day 29 vs baseline): −15.3 | Serum Amyloid P-Component, Effect size ([3]; 15 mg QD, day 29 vs baseline): −0.9 | Serum Amyloid P-Component, change in concentration, Mean ([3]; 15 mg QD, day 29 vs baseline): −5.0 | T-Cell-Specific Protein RANTES, Effect size ([3]; 15 mg QD, day 29 vs baseline): −0.5 | T-Cell-Specific Protein RANTES, change in concentration, Mean ([3]; 15 mg QD, day 29 vs baseline): −7.2 | Thyroxine-Binding Globulin, Effect size ([3]; 15 mg QD, day 29 vs baseline): −0.7 | Thyroxine-Binding Globulin, change in concentration, Mean ([3]; 15 mg QD, day 29 vs baseline): −8.4 | Tumor necrosis factor receptor 2, Effect size ([3]; 15 mg QD, day 29 vs baseline): −0.7 | Tumor necrosis factor receptor 2, change in concentration, Mean ([3]; 15 mg QD, day 29 vs baseline): −1.8 | Vascular Cell Adhesion Molecule-1, Effect size ([3]; 15 mg QD, day 29 vs baseline): −0.6 | Vascular Cell Adhesion Molecule-1, change in concentration, Mean ([3]; 15 mg QD, day 29 vs baseline): −98.3 | Vascular Endothelial Growth Factor, Effect size ([3]; 15 mg QD, day 29 vs baseline): −0.3 | Vascular Endothelial Growth Factor, change in concentration, Mean ([3]; 15 mg QD, day 29 vs baseline): −7.0 | Vitamin D-Binding Protein, Effect size ([3]; 15 mg QD, day 29 vs baseline): −0.5 | Vitamin D-Binding Protein, change in concentration, Mean ([3]; 15 mg QD, day 29 vs baseline): −26.5 | von Willebrand Factor, Effect size ([3]; 15 mg QD, day 29 vs baseline): −0.4 | von Willebrand Factor, change in concentration, Mean ([3]; 15 mg QD, day 29 vs baseline): −123.4 | inflammatory biomarkers increased with an effect size equal or more than 0.3 (3 of the 40) ([3]; 40 biomarkers assessed): 7.5% | inflammatory biomarkers reduced with effect sizes less or equal than −0.3 (26 out of the 40) ([3]; 40 biomarkers assessed): 65%
